Assay in all cases: DTP human tumour cell line panel, 48 h
Experiment [1] relates to HOP-92 NSCLC.
Experiment [2] has as its system HS 578T breast.
Experiment [3] relates to K-562 leukemia.
Experiment [4] concerns M14 melanoma.
Experiment [5] concerns MALME-3M melanoma.
Experiment [6] has as its system MDA-MB-231 breast.
In experiment [7] the test system is MOLT-4 leukemia.
In experiment [8] the test system is RPMI-8226 leukemia.
Experiment [9] concerns SR leukemia.
Experiment [10] concerns U251 CNS.

This is an account of results in PubChem BioAssay (NCI).

As a reminder, the GI50 is the concentration that inhibits growth by half. By TGI is commonly meant the concentration at which net growth stops. Read a low TGI as more potent growth arrest.

SMILES strings stand for the structures. Several values for one entry are separate records, joined by “and”; a condition that tells them apart may be missing. Identical values can stand only once.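 1) Cells in 96-well plates. 2) Compound, 48 h, 5 concentrations. 3) Linear interpolation between surrounding doses. 4) Unreached endpoint = highest concentration. At the GI50, growth is halved. Definition used: TGI = concentration required for complete inhibition of growth.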 Some results are limits rather than exact numbers.

Regarding `Oc1c(CN2CCCC2)cc(COCc2ccc(Br)cc2)c2cccnc12`, the GI50 was 1.93 µM in experiment [1]; 2.82 µM in [2]; 0.397 µM in experiment [3]; 0.36 µM in experiment [4]; 1.44 µM in [5]; 0.851 µM in [6]. Besides, the GI50 in experiment [7] is 0.495 µM; in [8], 1.12 µM; in [9], 0.365 µM; in experiment [10], 0.525 µM. In addition, the total growth inhibition concentration (TGI) in [1] turned out to be 7.56 µM; in [2], 17.1 µM; in experiment [3] it was 10.3 µM; in experiment [4] it was 1.77 µM; in experiment [5], 5.18 µM; in experiment [6] it was 2.37 µM. Besides, the concentration for total growth inhibition (TGI) in [7] amounted to 2.67 µM; in [8], 4.02 µM; in [9], 2.23 µM; in [10], 2.78 µM.

With `CC(=O)OCC(=O)O[C@@H]1C[C@]2(C(C)C)O[C@@]1(C)[C@@H]1CC[C@@H](C)[C@H]1[C@@H]2OC(=O)/C=C/c1ccccc1`, the GI50 in experiment [1] was 8.81 µM; in [2], less than 0.0116 µM; in experiment [3] it was 17.2 µM; in [4], 26.3 µM; in experiment [5], 20.7 µM; in [6], 14 µM. In addition, the GI50 is 20.3 µM in experiment [7], 18.8 µM in [8], 12.2 µM in experiment [9] and 16.7 µM in experiment [10]. Also, the TGI in experiment [1] was 22.9 µM; in experiment [2] it was 0.0363 µM; in [3], greater than 100 µM; in experiment [4], greater than 100 µM; in [5], 88.8 µM; in [6], 33.4 µM. Besides, the TGI in experiment [7] was greater than 100 µM; in [8], greater than 100 µM; in experiment [9], greater than 95.9 µM; in experiment [10] it was 50.3 µM.

Consider `Cc1cnc(/C=N\NC(N)=S)c2cccc(N)c12`, for which the GI50 in experiment [1] is 2.07 µM; in experiment [2], greater than 58 µM; in [3] it was 2.82 µM; in experiment [4], 1.83 µM and 0.384 µM; in [5], 3.53 µM; in experiment [6], 3.2 µM. In addition, the GI50 in [7] is 1.5 µM; in experiment [8] it was 2.1 µM; in experiment [9], 0.587 µM; in [10], 2 µM. The concentration for total growth inhibition (TGI) in experiment [1] was greater than 100 µM; in experiment [2], greater than 100 µM; in experiment [3] it was greater than 100 µM; in experiment [4], 4.41 µM and 1.75 µM; in [5], greater than 100 µM; in experiment [6] it was greater than 100 µM. The concentration for total growth inhibition (TGI) in [7], in [8] and in experiment [10] was greater than 100 µM each time.

For the compound `CN(C)c1ncnc2c1nnn2C1OC(CO)C(O)C1O` (stereo not given), the GI50 in experiment [1] is 0.186 µM; in [2] it was 0.632 µM; in experiment [3] it was 0.0973 µM; in experiment [4], 0.0515 µM; in experiment [5], 0.332 µM; in [6] it was 0.524 µM. The GI50 in [7] is 0.0635 µM; in [8], 0.16 µM; in [9] it was 0.393 µM; in experiment [10], 1.6 µM. The concentration for total growth inhibition (TGI) in [1] was 1.23 µM; in experiment [2], greater than 100 µM; in experiment [3], greater than 100 µM; in experiment [4], 1.14 µM; in experiment [5], 63.5 µM; in [6], greater than 100 µM. Also, the TGI is greater than 100 µM in [7], 1.1 µM in experiment [8], 7.64 µM in experiment [9] and greater than 100 µM in [10].

`O=C([O][Hg][CH2]C1COC([CH2][Hg][O]C(=O)c2ccccc2)CO1)c1ccccc1` (stereo not given): the GI50 in experiment [1] is 1.87 µM and 1.94 µM; in [2], 21.8 µM; in experiment [3] it was 0.648 µM and 0.945 µM; in [4], 8.68 µM and 2.52 µM; in experiment [5] it was 2.06 µM and 1.7 µM; in [6], 19.3 µM and 4.48 µM. Also, the GI50 in [7] was 2.18 µM and 1.41 µM; in [8] it was 1.97 µM and 2.14 µM; in experiment [9], 2.83 µM and 1.65 µM; in experiment [10] it was 4.46 µM and 13.5 µM. Moreover, the concentration for total growth inhibition (TGI) in experiment [1] is 4.16 µM and 3.37 µM; in [2] it was 82.6 µM; in experiment [3], 2.87 µM; in experiment [4] it was 19.8 µM and 4.89 µM; in [5] it was 3.81 µM and 3.23 µM; in experiment [6] it was 41.9 µM and 16.4 µM. The TGI was 6.5 µM and 6.83 µM in experiment [7]; 8.46 µM and 6.07 µM in experiment [8]; greater than 22.6 µM in experiment [9]; 10.8 µM and 27 µM in [10].

With `CN(N=O)C(=O)N[C@@H](C=O)[C@@H](O)[C@H](O)[C@H](O)CO`, the GI50 in [1], in [3], in experiment [5], in experiment [7], in [8] and in experiment [10] was greater than 750 µM each time. Also, the total growth inhibition concentration (TGI) in [1] is 621 µM and > 750 µM; in experiment [2], greater than 750 µM; in [3], 560 µM and > 750 µM; in experiment [4] it was greater than 750 µM; in experiment [5], 657 µM and > 750 µM; in experiment [6] it was greater than 750 µM. Also, the TGI in experiment [7] is 574 µM and > 750 µM; in experiment [8], 612 µM and > 750 µM; in experiment [9], greater than 750 µM; in experiment [10] it was 626 µM and > 750 µM.

`O=C(c1ccco1)c1nc2cc(F)ccc2[n+]([O-])c1C(F)(F)F`: the GI50 was 22.6 µM in experiment [1]; 97.4 µM in experiment [2]; 9.59 µM in experiment [3]; 17.6 µM in [4]; 17.4 µM in [5]; 22.6 µM in [6]. Moreover, the GI50 was 24.8 µM in experiment [7], 35.8 µM in [8], 17.4 µM in [9] and 35.5 µM in [10]. Further, the concentration for total growth inhibition (TGI) in [1] was 58.7 µM; in experiment [2] it was greater than 100 µM; in experiment [3] it was 47.9 µM; in experiment [4], 38.7 µM; in experiment [5] it was 33.9 µM; in experiment [6], 60.5 µM. The concentration for total growth inhibition (TGI) is 66.3 µM in experiment [7], greater than 100 µM in [8], 60.9 µM in experiment [9] and greater than 100 µM in [10].
